Test results: PubChem BioAssay AID2745 (NMMLSC, 2010)
Calls of active or inactive are those of the source. No rule for the calls is given here.

Assay: LAP4-GFP modulation potency in yeast, dose response, cell-based, MLPCN hits, flow cytometry (AID 2745);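 also: yeast exposed to compound for three hours at 30 degrees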
Conditions: S. cerevisiae LAP4-GFP reporter, flow cytometry fluorescence; at 33 µM (top of the series)

Structure (SMILES)	LAP4-GFP fluorescence (kMESF)
CN(C)c1ccc(N=Cc2nc(-c3ccccc3)oc2OC(=O)c2ccccc2)cc1	4.09 kMESF (inactive)
COc1cc(/C=C/[N+](=O)[O-])ccc1O	7.18 kMESF (inactive)
CC(=O)OC[C@]12CC[C@H]3[C@@](C)(CC[C@H]4C(C)(C)CCC[C@]34C)[C@@H]1C[C@H](C1=CC(=O)O[C@@H]1OC(C)=O)O2	13.6 kMESF (inactive)
CC1=C/C(=N\OS(=O)(=O)c2ccccc2)C(C)=CC1=O	4.1 kMESF (inactive)
COc1ccc2c(c1)c(/C=C/c1cc[n+](C)cc1)cn2C	4.11 kMESF (inactive)
COc1ccc([C@]2(C(C)C)ON(c3ccccc3C(F)(F)F)C2=O)cc1	4.65 kMESF (inactive)
O=C(c1ccc(Cl)cc1)N1CCN(c2cccc3[nH]ccc23)CC1	6.45 kMESF (inactive)
COc1ccc([C@@]2(C(C)C)ON(c3ccccc3C(F)(F)F)C2=O)cc1	4.38 kMESF (inactive)
COc1ccc(/C=C/C(=O)c2cc(Br)ccc(=O)c2O)cc1	-33.8 kMESF (inactive)
Cc1cccc(N=C2NC(=O)/C(=C/C=C/c3ccco3)S2)c1C	13.7 kMESF (inactive)
O=C(COc1ccccc1)N1CCN(c2ncnc3c2cnn3-c2ccccc2)CC1	3.38 kMESF (inactive)
O=C(c1ccccn1)c1conc1C(=O)c1ccc(Br)cc1	9.07 kMESF (inactive)
CC[C@]1(c2ccccc2C)ON(c2ccccc2C(F)(F)F)C1=O	3.33 kMESF (inactive)
CCCCOc1ccc(C(=O)NNC(=S)NC(=O)CC)cc1	9.81 kMESF (inactive)
CCOc1ccc(N/N=C(/C#N)C(N)=O)cc1	9.57 kMESF (inactive)
O=C(Cc1ccc(Cl)cc1)NNC(=S)NC(=O)c1cccs1	9.52 kMESF (inactive)
COC(CNC(=O)c1ccc2c3c(onc13)-c1ccccc1C2=O)OC	2.86 kMESF (inactive)
Cc1cc(C)nc(S/C=C/C(=O)c2ccccc2)n1	11 kMESF (inactive)
CC(C)Cn1c(=O)c(C(=O)Nc2ccncc2)c(O)c2ccccc21	2.36 kMESF (inactive)
O=C1c2ccccc2C(=O)N1OS(=O)(=O)c1ccccc1	8.7 kMESF (inactive)
O=C(COc1ccccc1)NNC(=S)NC(=O)c1ccccc1	4.36 kMESF (inactive)
COc1ccc(C(=O)/C=C2/C(=O)Nc3ccccc32)c(OC)c1	10.1 kMESF (inactive)

Structure (SMILES)	LAP4-GFP fluorescence (kMESF)
COc1ccc(N/N=C(\C#N)C(N)=O)cc1	13.2 kMESF (inactive)
CCCc1cc(=O)oc2cc(C)cc(OCC(=O)NC3CC3)c12	3.74 kMESF (inactive)
O=C(CSC1=NS(=O)(=O)c2ccccc21)Nc1ccccc1	7.82 kMESF (inactive)
O=C1Nc2ccc(Br)cc2/C1=C/C(=O)c1ccc2c(c1)OCO2	10.4 kMESF (inactive)
O=C(/C=C/c1ccc(Br)cc1)NC(=S)NNC(=O)c1ccco1	5.87 kMESF (inactive)
O=S(=O)(/N=C(/Sc1ccccc1)c1ccccc1)c1ccccc1	11.4 kMESF (inactive)
CCCCCCCCCCCCCCCC[n+]1cccc2ccccc21	1.21 kMESF (inactive)
Cc1ccc(/C(N)=N/OC(=O)c2ccc(F)cc2)cc1	5.21 kMESF (inactive)
CCCc1cc(NCc2ccccn2)n2nc(C)c(-c3ccccc3)c2n1	9.24 kMESF (inactive)
O=C(Nc1ccc(N2CCOCC2)cc1)C1CCN(S(=O)(=O)c2ccc3c(c2)OCCO3)CC1	3.78 kMESF (inactive)
O=C1c2cccc3c([N+](=O)[O-])ccc(c23)C(=O)N1CCc1ccccn1	7.15 kMESF (inactive)
Cc1c(NC2=C(Cl)C(=O)N(c3ccccc3Cl)C2=O)c(=O)n(-c2ccccc2)n1C	3.78 kMESF (inactive)
O=[N+]([O-])c1cc(CN2CCN(c3ccccc3)CC2)c(O)c2ncccc12	14.7 kMESF (inactive)
Cc1cccc(C(=O)NNC(=S)NC(=O)c2ccccc2)c1	9.62 kMESF (inactive)
COC(=O)CCS(=O)(=O)c1nc(-c2ccccc2)cc(C(F)(F)F)n1	20.1 kMESF (inactive)
CS(=O)(=O)c1sc(C#N)c2c1C(=O)CC(c1ccccc1)C2 (centres undefined)	14.6 kMESF (inactive)
O=C1C=C(c2ccc(Cl)cc2)C(=O)N1Nc1ccccc1	5.81 kMESF (inactive)
O=C1c2ccccc2C(=O)N1OS(=O)(=O)c1ccc(F)cc1	9.97 kMESF (inactive)
CCOc1ccc(NC2=C(Cl)C(=O)N(Cc3ccccc3)C2=O)cc1	6.11 kMESF (inactive)
Cc1ccccc1C(=O)NNC(=S)NC(=O)c1ccc(Cl)cc1Cl	8.22 kMESF (inactive)
CCc1cccc2sc(N3CCN(C(=O)c4ccc([N+](=O)[O-])o4)CC3)nc12	-0.3 kMESF (inactive)
Cc1ccc(NC(=O)c2cc(N3C(=O)C=CC3=O)ccc2N2CCOCC2)cc1Cl	10.5 kMESF (inactive)

Structure (SMILES)	LAP4-GFP fluorescence (kMESF)
O=C1N(c2ccccc2C(F)(F)F)O[C@@]1(c1ccccc1)C1CCCCC1	2.73 kMESF (inactive)
CN(C)C(=O)Oc1ccnc2cc(Cl)ccc12	2.83 kMESF (inactive)
Cc1ccc(N=Nc2ccc(O)c3ncccc23)cc1	4.95 kMESF (inactive)
COc1cccc(/C=C2\SC(=S)N(CCCC(=O)Nc3ccc(C(=O)O)cc3)C2=O)c1	3.71 kMESF (inactive)
Cc1ccnc(N2C(=O)c3cccc4c([N+](=O)[O-])ccc(c34)C2=O)c1	33.2 kMESF (inactive)
O=C1C=C(Nc2ccc(Cl)cc2)C(=O)N1c1ccc(Cl)cc1	3.03 kMESF (inactive)
CC1(C(=O)NC(=S)NNC(=O)c2ccncc2)CCCCC1	4.99 kMESF (inactive)
CC(=O)N(\C=C/C=C/C=C1\Sc2ccccc2C1=O)c1ccccc1	14.2 kMESF (inactive)
N/C(=N\OC(=O)c1cc(Br)ccc1Cl)c1ccccn1	12.2 kMESF (inactive)
C=CCOc1cccc(C(=O)/C=C2/C(=O)Nc3ccccc32)c1	8.61 kMESF (inactive)
Cc1ccc(C(=O)NNC(=S)NC(=O)c2ccco2)cc1	7.42 kMESF (inactive)
O=C1C(Cl)=C(Nc2ccccc2O)C(=O)N1c1ccccc1	4.81 kMESF (inactive)
O=C(Oc1oc(-c2ccco2)nc1C=Nc1ccc(Cl)cc1)c1ccco1	8.92 kMESF (inactive)
O=C1c2cccc3c([N+](=O)[O-])ccc(c23)C(=O)N1c1ccccn1	7.78 kMESF (inactive)
CC(=O)Oc1ccc(/C=c2\sc3ncnn3c2=O)cc1	10.1 kMESF (inactive)
CCN1/C(=C/C=C/c2sc3ccccc3[n+]2CC)Sc2ccccc21	7.72 kMESF (inactive)
Cc1cccc(OCCN2CSC(=S)N(C)C2)c1	9.83 kMESF (inactive)
O=C(Nc1ccc(NC(=O)c2cc3ccccc3o2)cc1)c1ccc2c(c1)OCCO2	3.21 kMESF (inactive)
CC(C)(C)C(=O)NC(=S)NNC(=O)c1sc2ccccc2c1Cl	8.89 kMESF (inactive)
Oc1c(C(Nc2nc3ccccc3s2)c2ccco2)ccc2cccnc12 (centres undefined)	24.1 kMESF (inactive)
